Source: PMC9403976, “Elucidating the path to Plasmodium prolyl-tRNA synthetase inhibitors that overcome halofuginone resistance” (Nature Communications, 2022)
Where “and” joins values, the source holds several entries; their conditions need not be identical. Equal values may be shown once. Read-outs that look alike come from different tables or passages of the source.

How the values were obtained:
PfcProRS = target: T1, PfcProRS (Plasmodium falciparum, UniProt Q8I5R7); type: binding; settings: single replicates
T1 construct: made in house; host or cells: E. coli SoluBL-21

HsProRS = HsProRS (Homo sapiens, UniProt P07814); assay: TR-FRET ligand displacement assay with tracer MAT379 (CoraFluor-1-Halo and anti-His6 antibody formats); type: binding; design: made in house; host or cells: E. coli SoluBL-21; settings: for TR-FRET dose-response, normalized signal (SI Fig 11): individual replicates
P. falciparum Dd2-2D4 = assay: P. falciparum asexual blood stage (ABS) growth assay, SYBR Green, 72 h, wild-type parasites; type: cell-based, Plasmodium falciparum; settings: Plasmodium falciparum, DD2; SI Fig 16b; values on -log scale; read-out: ABS - Dd2-2D4 (converted)

Sequence of HsProRS (P07814 996-1512): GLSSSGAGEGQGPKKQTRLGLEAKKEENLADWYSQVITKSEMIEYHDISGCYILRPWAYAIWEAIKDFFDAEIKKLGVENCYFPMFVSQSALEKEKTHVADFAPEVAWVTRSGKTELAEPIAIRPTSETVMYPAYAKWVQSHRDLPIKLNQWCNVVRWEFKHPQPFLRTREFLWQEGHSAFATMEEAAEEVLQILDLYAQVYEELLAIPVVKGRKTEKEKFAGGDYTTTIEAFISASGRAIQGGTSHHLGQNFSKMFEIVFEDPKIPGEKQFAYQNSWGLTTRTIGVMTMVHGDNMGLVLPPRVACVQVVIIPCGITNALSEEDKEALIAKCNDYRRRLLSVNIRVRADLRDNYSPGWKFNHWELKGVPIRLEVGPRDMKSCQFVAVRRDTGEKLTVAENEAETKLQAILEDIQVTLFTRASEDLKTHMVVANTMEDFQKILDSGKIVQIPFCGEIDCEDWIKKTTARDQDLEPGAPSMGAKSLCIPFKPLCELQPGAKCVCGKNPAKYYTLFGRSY
T1 sequence (Q8I5R7 249-746): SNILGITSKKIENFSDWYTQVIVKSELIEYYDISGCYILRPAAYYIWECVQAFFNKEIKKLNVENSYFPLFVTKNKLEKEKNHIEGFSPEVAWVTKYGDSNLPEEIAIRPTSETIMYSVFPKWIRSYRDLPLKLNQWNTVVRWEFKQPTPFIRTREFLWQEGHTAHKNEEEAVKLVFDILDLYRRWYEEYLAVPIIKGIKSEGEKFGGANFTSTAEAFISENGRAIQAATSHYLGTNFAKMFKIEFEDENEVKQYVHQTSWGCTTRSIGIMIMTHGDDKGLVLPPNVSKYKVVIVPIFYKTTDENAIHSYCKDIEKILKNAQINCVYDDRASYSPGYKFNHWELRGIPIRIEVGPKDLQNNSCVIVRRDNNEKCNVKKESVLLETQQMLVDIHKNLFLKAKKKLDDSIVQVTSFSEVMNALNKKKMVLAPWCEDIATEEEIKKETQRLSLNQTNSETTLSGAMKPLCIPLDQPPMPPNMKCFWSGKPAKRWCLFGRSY

In the case of `NC(=O)Nc1nccnc1C(=O)NC1Cc2ccccc2C1` [compound 23], the “dose-response signal (normalized), SI Fig 8” value (PfcProRS; Log[inhibitor] (M) -5.000) is reported as 9.53E-01 and 9.58E-01 and 9.22E-01, the “dose-response signal (normalized), SI Fig 8” value (PfcProRS; Log[inhibitor] (M) -5.301) is reported as 9.58E-01 and 1.12E+00 and 1.10E+00 and the “dose-response signal (normalized), SI Fig 8” value (PfcProRS; Log[inhibitor] (M) -5.601) is reported as 1.05E+00 and 1.01E+00 and 9.67E-01. The “dose-response signal (normalized), SI Fig 8” value (PfcProRS; Log[inhibitor] (M) -5.904) was 9.75E-01 and 1.01E+00 and 9.11E-01, the “dose-response signal (normalized), SI Fig 8” value (PfcProRS; Log[inhibitor] (M) -6.208) was 1.13E+00 and 1.21E+00 and 1.04E+00 and the “dose-response signal (normalized), SI Fig 8” value (PfcProRS; Log[inhibitor] (M) -6.509) was 1.02E+00 and 1.09E+00 and 1.04E+00. The “dose-response signal (normalized), SI Fig 8” value (PfcProRS; Log[inhibitor] (M) -6.796) was 1.08E+00 and 1.02E+00 and 1.06E+00, the “dose-response signal (normalized), SI Fig 8” value (PfcProRS; Log[inhibitor] (M) -7.108) was 9.85E-01 and 1.02E+00 and 9.97E-01 and the “dose-response signal (normalized), SI Fig 8” value (PfcProRS; Log[inhibitor] (M) -7.409) was 9.53E-01 and 1.06E+00 and 1.07E+00. The “dose-response signal (normalized), SI Fig 8” value (PfcProRS; Log[inhibitor] (M) -7.710) was 9.44E-01 and 1.06E+00 and 1.08E+00, the “dose-response signal (normalized), SI Fig 8” value (PfcProRS; Log[inhibitor] (M) -8.000) was 9.87E-01 and 9.72E-01 and 1.16E+00 and the “dose-response signal (normalized), SI Fig 8” value (PfcProRS; Log[inhibitor] (M) -8.301) was 1.10E+00 and 1.12E+00 and 1.02E+00. The “dose-response signal (normalized), SI Fig 8” value (PfcProRS; Log[inhibitor] (M) -8.602) was 9.87E-01 and 1.09E+00 and 1.12E+00, the “dose-response signal (normalized), SI Fig 8” value (PfcProRS; Log[inhibitor] (M) -9.000) was 1.08E+00 and 9.51E-01 and 1.17E+00 and the “dose-response signal (normalized), SI Fig 8” value (PfcProRS; Log[inhibitor] (M) -9.301) was 9.82E-01 and 1.20E+00 and 1.04E+00. For the same molecule, the IC50 (HsProRS) was > 10 µM, the “HsProRS % signal at 10 μM, + 100 μM proline” value (HsProRS; + 100 μM proline, 10 μM) was 78.4% and the “normalized TR-FRET ligand displacement signal, dose-response replicates (SI Fig 6)” value (HsProRS; Log[inhibitor] (M) -5.000) was 9.23E-01 and 9.68E-01 and 8.88E-01. The “TR-FRET dose-response, normalized signal (SI Fig 11)” value (HsProRS; Log[inhibitor] (M) -5.000) was 8.87E-01 and 8.66E-01 and 9.17E-01, the “normalized TR-FRET ligand displacement signal, dose-response replicates (SI Fig 6)” value (HsProRS; Log[inhibitor] (M) -5.301) was 9.33E-01 (2×) and 1.11E+00 and the “TR-FRET dose-response, normalized signal (SI Fig 11)” value (HsProRS; Log[inhibitor] (M) -5.301) was 9.05E-01 and 8.98E-01 and 9.19E-01. The “normalized TR-FRET ligand displacement signal, dose-response replicates (SI Fig 6)” value (HsProRS; Log[inhibitor] (M) -5.601) was 9.64E-01 and 1.03E+00 and 9.59E-01, the “TR-FRET dose-response, normalized signal (SI Fig 11)” value (HsProRS; Log[inhibitor] (M) -5.601) was 9.98E-01 and 9.77E-01 and 1.05E+00 and the “normalized TR-FRET ligand displacement signal, dose-response replicates (SI Fig 6)” value (HsProRS; Log[inhibitor] (M) -5.904) was 1.09E+00 and 1.01E+00 and 9.81E-01. For the same molecule, the “TR-FRET dose-response, normalized signal (SI Fig 11)” value (HsProRS; Log[inhibitor] (M) -5.904) was 1.00E+00 and 9.89E-01 and 1.01E+00, the “normalized TR-FRET ligand displacement signal, dose-response replicates (SI Fig 6)” value (HsProRS; Log[inhibitor] (M) -6.208) was 9.87E-01 and 1.09E+00 and 1.03E+00 and the “TR-FRET dose-response, normalized signal (SI Fig 11)” value (HsProRS; Log[inhibitor] (M) -6.208) was 9.53E-01 and 1.02E+00 and 9.38E-01. The “normalized TR-FRET ligand displacement signal, dose-response replicates (SI Fig 6)” value (HsProRS; Log[inhibitor] (M) -6.509) was 9.55E-01 and 1.02E+00 and 8.65E-01, the “TR-FRET dose-response, normalized signal (SI Fig 11)” value (HsProRS; Log[inhibitor] (M) -6.509) was 1.01E+00 and 1.02E+00 and 9.66E-01 and the “normalized TR-FRET ligand displacement signal, dose-response replicates (SI Fig 6)” value (HsProRS; Log[inhibitor] (M) -6.796) was 1.06E+00 and 9.70E-01 and 9.00E-01. The “TR-FRET dose-response, normalized signal (SI Fig 11)” value (HsProRS; Log[inhibitor] (M) -6.796) was 1.06E+00 and 1.02E+00 and 1.01E+00, the “normalized TR-FRET ligand displacement signal, dose-response replicates (SI Fig 6)” value (HsProRS; Log[inhibitor] (M) -7.108) was 9.62E-01 and 9.53E-01 and 1.03E+00 and the “TR-FRET dose-response, normalized signal (SI Fig 11)” value (HsProRS; Log[inhibitor] (M) -7.108) was 9.79E-01 and 1.00E+00 and 1.02E+00. The “normalized TR-FRET ligand displacement signal, dose-response replicates (SI Fig 6)” value (HsProRS; Log[inhibitor] (M) -7.409) was 9.73E-01 and 9.58E-01 and 1.07E+00, the “TR-FRET dose-response, normalized signal (SI Fig 11)” value (HsProRS; Log[inhibitor] (M) -7.409) was 1.02E+00 (2×) and 1.04E+00 and the “normalized TR-FRET ligand displacement signal, dose-response replicates (SI Fig 6)” value (HsProRS; Log[inhibitor] (M) -7.710) was 1.04E+00 and 9.48E-01 and 1.10E+00. For the same molecule, the “TR-FRET dose-response, normalized signal (SI Fig 11)” value (HsProRS; Log[inhibitor] (M) -7.710) was 1.01E+00 and 1.04E+00 and 9.76E-01, the “normalized TR-FRET ligand displacement signal, dose-response replicates (SI Fig 6)” value (HsProRS; Log[inhibitor] (M) -8.000) was 1.00E+00 (2×) and 1.06E+00 and the “TR-FRET dose-response, normalized signal (SI Fig 11)” value (HsProRS; Log[inhibitor] (M) -8.000) was 9.60E-01 and 1.00E+00 (2×). For the same molecule, the “normalized TR-FRET ligand displacement signal, dose-response replicates (SI Fig 6)” value (HsProRS; Log[inhibitor] (M) -8.301) was 9.32E-01 and 1.07E+00 and 9.64E-01, the “TR-FRET dose-response, normalized signal (SI Fig 11)” value (HsProRS; Log[inhibitor] (M) -8.301) was 1.00E+00 and 9.88E-01 and 1.08E+00 and the “normalized TR-FRET ligand displacement signal, dose-response replicates (SI Fig 6)” value (HsProRS; Log[inhibitor] (M) -8.602) was 1.06E+00 and 1.00E+00 and 1.07E+00. The “TR-FRET dose-response, normalized signal (SI Fig 11)” value (HsProRS; Log[inhibitor] (M) -8.602) was 1.00E+00 and 1.01E+00 and 9.76E-01, the “normalized TR-FRET ligand displacement signal, dose-response replicates (SI Fig 6)” value (HsProRS; Log[inhibitor] (M) -9.000) was 1.03E+00 (2×) and 9.79E-01 and the “TR-FRET dose-response, normalized signal (SI Fig 11)” value (HsProRS; Log[inhibitor] (M) -9.000) was 1.00E+00 and 9.57E-01 and 9.73E-01. For the same molecule, the “normalized TR-FRET ligand displacement signal, dose-response replicates (SI Fig 6)” value (HsProRS; Log[inhibitor] (M) -9.301) was 1.02E+00 (2×) and 9.65E-01, the “TR-FRET dose-response, normalized signal (SI Fig 11)” value (HsProRS; Log[inhibitor] (M) -9.301) was 9.83E-01 and 9.76E-01 and 9.75E-01 and the “HsProRS % signal at 10 μM” value (HsProRS; no added proline/ATP (-), 10 μM) was 89.0%. The IC50 (HsProRS; read-out: HsProRS IC50 + 100 μM proline, + 100 μM proline) was > 10 µM and the EC50 (P. falciparum Dd2-2D4) was 12.1 µM.
